Some results are limits rather than exact numbers.

For the experiment, the system named is MAPT 3R mRNA. In words: RT-qPCR Assay to Quantify MAPT 3R mRNA in Cells. The class given is cell-based. Also on record: key to EC2X: An EC2x value≥3000 nM is indicated by “inactive.”; An EC2x value between >1500 nM and ≤3000 nM is indicated by one star (*); An EC2x value between >1000 nM and ≤1500 nM is indicated by two stars (**); An EC2x value between >500 nM and ≤1000 nM is indicated by three stars (***); An EC2x value between >50 nM and ≤500 nM is indicated by four stars (****); An EC2x value≤50 nM is indicated by five stars (*****). The note with it: cells incubated with compound 24 h; 7-point concentration curve; in house MAPT minigene 3R primer/probe with GAPDH assay; EC2x interpolated from dose response curve. As for the experimental part: RT-qPCR Assay to Quantify MAPT 3R mRNA in Cells
Test compounds were serially diluted 3.16-fold in 100% DMSO to generate a 7-point concentration curve. Aliquots of 0.5 μL of diluted compounds were transferred to a 96-well flat bottom plate by a liquid handler. An aliquot of 0.5 μL DMSO was also transferred to separate wells and used as controls. Duplicate samples were set up for each compound concentration and for the DMSO control.
Cells were thawed and incubated in cell culture media (DMEM, 1 FBS, and No antibiotic cocktail) for 72 h. Cells were trypsinized, counted, and re-suspended to a concentration of 200,000 cells/mL in cell culture media. A 100 μL aliquot of the cell suspensions were plated at 20,000 cells per well in the compound containing 96 well microtiter plate and incubated for in a cell culture incubator (37° C., […], 100% relative humidity).
After 24 h, media was aspirated from the cells and 20 μL of the RCL2 lysis buffer (10 mM Tris-HCL pH 7.4, 150 mM NaCl, […]) was added to each well and incubated at RT for 1 mi. Chilled nuclease free water (140 μL per well) was added and the plates were immediately transferred on ice. After 1 min on ice, plates were frozen at −80° C. overnight.
Preparation of RT-PCR Reaction Mixture:
An aliquot of 4 μL/well of the cell lysates was transferred using the liquid handler to the Armadillo 384-Well PCR plate containing 6 μL/well of the RT-qPCR reaction mixture that was prepared as detailed above. The plates were then sealed with MicroAmp™ Optical Adhesive Film followed by spinning down for 1 min and placed in the CFX384 thermocycler (BioRad).
The RT-qPCR was carried out at the following temperatures for the indicated time: • Step 1: 48° C. (30 min) • Step 2: 95° C. (10 min) • Step 3: 95° C. (15 sec) • Step 4: 60° C. (1 min); then, repeated Steps 3 and 4 for a total of 40 cycles.
The percent exon 4 skipping was calculated for each dose of compound treatment using Equations 1 and 2.
Data were fit to a dose response curve and the EC2x was interpolated using XLfit® statistical and curve fitting package.
An EC2x value between >1000 nM and ≤1500 nM is indicated by two stars (**). An EC2x value between >500 nM and ≤1000 nM is indicated by three stars (***). An EC2x value between >50 nM and ≤500 nM is indicated by four stars (****). An EC2x value≤50 nM is indicated by five stars (*****).
On to `CC(C)[C@H](N)Cc1cc2nc(Cl)nc(NCc3ccco3)c2s1` [Cpd 5, 6-[(2R)-2-amino-3-methylbutyl]-2-chloro-N-[(furan-2-yl)methyl]thieno[3,2-d]pyrimidin-4-amine], for which the EC (2-fold) is 0.05 to 0.5 µM.

Consider `Cc1c(C[C@H](C)N)sc2c(NCc3ccco3)nc(Cl)nc12` [Cpd 12, 6-[(2S)-2-aminopropyl]-2-chloro-N-[(furan-2-yl)methyl]-7-methylthieno[3,2-d]pyrimidin-4-amine], for which the EC (2-fold) is at most 0.05 µM.

For the molecule `Cc1nc(NCc2ccco2)c2sc(C[C@H](C)N)c(C)c2n1` [Cpd 15, 6-[(2S)-2-aminopropyl]-N-[(furan-2-yl)methyl]-2,7-dimethylthieno[3,2-d]pyrimidin-4-amine], the EC (2-fold) lay in the range of 0.05 to 0.5 µM.

With `Cc1csc2c(NCc3ccncc3)nc(Cl)nc12` [Cpd 23, 2-chloro-7-methyl-N-[(pyridin-4-yl)methyl]thieno[3,2-d]pyrimidin-4-amine], the EC (2-fold) lay within 0.05 to 0.5 µM.

As to `Cc1ccc(CNc2nc(Cl)nc3c(C)c(C[C@H](C)N)sc23)o1` [Cpd 24, 6-[(2S)-2-aminopropyl]-2-chloro-7-methyl-N-[(5-methylfuran-2-yl)methyl]thieno[3,2-d]pyrimidin-4-amine], the EC (2-fold) lay in the range of 0.05 to 0.5 µM.

`Cc1c(C[C@H](C)N)sc2c(NCc3cccs3)nc(Cl)nc12` [Cpd 28, 6-[(2S)-2-aminopropyl]-2-chloro-7-methyl-N-[(thiophen-2-yl)methyl]thieno[3,2-d]pyrimidin-4-amine]: the EC (2-fold) was at most 0.05 µM.

For `Cc1c(C[C@H](C)N)sc2c(NCc3nccs3)nc(Cl)nc12` [Cpd 29, 6-[(2S)-2-aminopropyl]-2-chloro-7-methyl-N-[(1,3-thiazol-2-yl)methyl]thieno[3,2-d]pyrimidin-4-amine], the EC (2-fold) was at most 0.05 µM.

Regarding `Cc1cnc(CNc2nc(Cl)nc3c(C)c(C[C@H](C)N)sc23)s1` [Cpd 31, 6-[(2S)-2-aminopropyl]-2-chloro-7-methyl-N-[(5-methyl-1,3-thiazol-2-yl)methyl]thieno[3,2-d]pyrimidin-4-amine], the EC (2-fold) lay in the range of 1.5 to 3 µM.

On to `Cc1c(C[C@H](C)N)sc2c(NCc3ccc(F)s3)nc(Cl)nc12` [Cpd 33, 6-[(2S)-2-aminopropyl]-2-chloro-N-[(5-fluorothiophen-2-yl)methyl]-7-methylthieno[3,2-d]pyrimidin-4-amine], for which the EC (2-fold) is 0.05 to 0.5 µM.

Consider `Cc1c(C[C@H](C)N)sc2c(NCc3ccco3)nc(Br)nc12` [Cpd 38, 6-[(2S)-2-aminopropyl]-2-bromo-N-[(furan-2-yl)methyl]-7-methylthieno[3,2-d]pyrimidin-4-amine], for which the EC (2-fold) lay in the range of 0.5 to 1 µM.

Consider `Cc1c(C[C@H](C)N)sc2c(NCc3ccno3)nc(Cl)nc12` [Cpd 39, 6-[(2S)-2-aminopropyl]-2-chloro-7-methyl-N-[(1,2-oxazol-5-yl)methyl]thieno[3,2-d]pyrimidin-4-amine], for which the EC (2-fold) was in the range of 0.05 to 0.5 µM.

`Cc1c(C[C@@H](N)CCF)sc2c(NCc3ccco3)nc(Cl)nc12` [Cpd 51, 6-[(2S)-2-amino-4-fluorobutyl]-2-chloro-N-[(furan-2-yl)methyl]-7-methylthieno[3,2-d]pyrimidin-4-amine]: the EC (2-fold) was at most 0.05 µM.

Consider `Cc1c(C[C@@H](N)CO)sc2c(NCc3cccs3)nc(Cl)nc12` [Cpd 56, (2R)-2-amino-3-(2-chloro-7-methyl-4-{[(thiophen-2-yl)methyl]amino}thieno[3,2-d]pyrimidin-6-yl)propan-1-ol], for which the EC (2-fold) was at most 0.05 µM.

For the molecule `Cc1c(C[C@H](C)N)sc2c(NCc3ncccc3F)nc(Cl)nc12` [Cpd 59, 6-[(2S)-2-aminopropyl]-2-chloro-N-[(3-fluoropyridin-2-yl)methyl]-7-methylthieno[3,2-d]pyrimidin-4-amine], the EC (2-fold) fell in the range of 0.5 to 1 µM.

`Cc1c(C[C@H](C)N)sc2c(NCc3cccnc3F)nc(Cl)nc12` [Cpd 60, 6-[(2S)-2-aminopropyl]-2-chloro-N-[(2-fluoropyridin-3-yl)methyl]-7-methylthieno[3,2-d]pyrimidin-4-amine]: the EC (2-fold) lay within 1.5 to 3 µM.

Take `CC[C@H](N)Cc1sc2c(NCc3ccns3)nc(Cl)nc2c1C` [Cpd 62, 6-[(2S)-2-aminobutyl]-2-chloro-7-methyl-N-[(1,2-thiazol-5-yl)methyl]thieno[3,2-d]pyrimidin-4-amine]: the EC (2-fold) was 0.05 to 0.5 µM.

As to `Cc1c(C[C@H](C)N)sc2c(NCc3c(F)cncc3F)nc(Cl)nc12` [Cpd 64, 6-[(2S)-2-aminopropyl]-2-chloro-N-[(3,5-difluoropyridin-4-yl)methyl]-7-methylthieno[3,2-d]pyrimidin-4-amine], the EC2X entry was “inactive”.

As to `Cc1c(C[C@@H](C)CN)sc2c(NCc3ccco3)nc(Cl)nc12` [Cpd 72, 6-[(2R)-3-amino-2-methylpropyl]-2-chloro-N-[(furan-2-yl)methyl]-7-methylthieno[3,2-d]pyrimidin-4-amine], the EC (2-fold) lay within 1.5 to 3 µM.

With `Cc1c(C[C@H](C)N)sc2c(NCc3cncs3)nc(Cl)nc12` [Cpd 74, 6-[(2S)-2-aminopropyl]-2-chloro-7-methyl-N-[(1,3-thiazol-5-yl)methyl]thieno[3,2-d]pyrimidin-4-amine], the EC (2-fold) was at most 0.05 µM.

For `Cc1c(C[C@H](C)N)sc2c(NCc3cnco3)nc(Cl)nc12` [Cpd 75, 6-[(2S)-2-aminopropyl]-2-chloro-7-methyl-N-[(1,3-oxazol-5-yl)methyl]thieno[3,2-d]pyrimidin-4-amine], the EC (2-fold) is 0.5 to 1 µM.

With `CCc1c(C[C@H](C)N)sc2c(NCc3ccco3)nc(Cl)nc12` [Cpd 77, 6-[(2S)-2-aminopropyl]-2-chloro-7-ethyl-N-[(furan-2-yl)methyl]thieno[3,2-d]pyrimidin-4-amine], the EC (2-fold) fell in the range of 0.05 to 0.5 µM.

In the case of `Cc1c(C[C@H](C)NC2CCC2)sc2c(NCc3ccco3)nc(Cl)nc12` [Cpd 78, 2-chloro-6-[(2S)-2-(cyclobutylamino)propyl]-N-[(furan-2-yl)methyl]-7-methylthieno[3,2-d]pyrimidin-4-amine], the EC (2-fold) fell in the range of 1.5 to 3 µM.

Turning to `C[C@H](N)Cc1sc2c(NCc3cccs3)nc(Cl)nc2c1Br` [Cpd 82, 6-[(2S)-2-aminopropyl]-7-bromo-2-chloro-N-[(thiophen-2-yl)methyl]thieno[3,2-d]pyrimidin-4-amine], the EC (2-fold) was at most 0.05 µM.

For `C[C@H](N)Cc1sc2c(NCc3cccs3)nc(Cl)nc2c1C1CC1` [Cpd 86, 6-[(2S)-2-aminopropyl]-2-chloro-7-cyclopropyl-N-[(thiophen-2-yl)methyl]thieno[3,2-d]pyrimidin-4-amine], the EC (2-fold) lay in the range of 0.05 to 0.5 µM.

As for `Cc1c(C[C@H](C)N)sc2c(NCc3sccc3F)nc(Cl)nc12` [Cpd 90, 6-[(2S)-2-aminopropyl]-2-chloro-N-[(3-fluorothiophen-2-yl)methyl]-7-methylthieno[3,2-d]pyrimidin-4-amine], the EC (2-fold) was in the range of 0.05 to 0.5 µM.

Turning to `Cc1c(C[C@H](C)N)sc2c(NCc3nc(F)cs3)nc(Cl)nc12` [Cpd 92, 6-[(2S)-2-aminopropyl]-2-chloro-N-[(4-fluoro-1,3-thiazol-2-yl)methyl]-7-methylthieno[3,2-d]pyrimidin-4-amine], the EC (2-fold) lay in the range of 0.05 to 0.5 µM.

`Cc1c(C[C@H](C)N)sc2c(NCc3ncc(F)s3)nc(Cl)nc12` [Cpd 93, 6-[(2S)-2-aminopropyl]-2-chloro-N-[(5-fluoro-1,3-thiazol-2-yl)methyl]-7-methylthieno[3,2-d]pyrimidin-4-amine]: the EC (2-fold) was 0.05 to 0.5 µM.

In the case of `Cc1c(C[C@@H](N)CCO)sc2c(NCc3ccco3)nc(Cl)nc12` [Cpd 97, (3S)-3-amino-4-(2-chloro-4-{[(furan-2-yl)methyl]amino}-7-methylthieno[3,2-d]pyrimidin-6-yl)butan-1-ol], the EC (2-fold) is at most 0.05 µM.

For the origin of these results see patent publication US20240374602A1, “METHODS FOR TREATING NEUROGENERATIVE DISEASES” (PTC THERAPEUTICS, INC., priority 2021, published 2024).
